Assay [1] concerns HCC70 breast cancer cells. In words: Zebrafish xenograft breast cancer model (HCC70). Type of assay: in vivo. The settings on record: 48 hours, compared to the vehicle, FIG. 6. On the procedure: Transgenic Tg(fli1:EGFP)y1 zebrafish embryos were cultured in E3 embryo medium with 0.2 mM 1-phenyl-2-thiourea (PTU) at 28 °C for 48 hours. HCC70 breast cancer cells were cultured using RPMI-1640 medium supplemented with 10 % FBS, and AGS gastric cancer cells were cultured using F-12K medium supplemented with 10 % FBS. Each cell was collected, labeled with Dil red fluorescent dye, and then subcutaneously transplanted into 2-day-old zebrafish embryos. After selecting embryos with tumors, they were classified into experimental groups (20 embryos per group), and each Example compound dissolved and diluted in DMSO across 2 to 3 concentration ranges, a DMSO control group, or a comparative compound were added, followed by incubation at 35.5 °C for 48 hours or 72 hours. In the breast cancer model, primary tumors were collected immediately after transplantation (Day 0) and after 48 hours (Day 2), and in the gastric cancer model, primary tumors were obtained immediately after transplantation (Day 0) and after 72 hours (Day 3). Images of the collected tumors were analyzed for reduction in tumor size compared to the DMSO control group using image software, and the number of disseminated cancer cells after 3 days was manually counted through the captured images, with the results shown in FIGs. 6, 7, and 8. […]

Assay [2] concerns NCI-H23. Nature of the assay: Lung cancer cell proliferation inhibitory activity, NCI-H23. In kind it is cell-based. The settings on record: Homo sapiens, 72 hours, Cell Counting Kit-8, relative IC50. As for the experimental part:
(§1) Experiments were performed using three types of lung cancer cell lines to measure the cell proliferation inhibitory ability of the compounds of the present invention. NCI-H23 and NCI-H358 cells were dispensed into a 96-well plate at 100 µL of cell suspension per well using RPM11640 medium containing 10 % FBS and 1 % PS, followed by incubation in a cell incubator at 37 °C and 5 % CO2. A427 cells were dispensed into a 96-well plate at 100 µL of cell suspension per well using DMEM medium containing 10 % FBS and 1 % PS, followed by incubation in a cell incubator at 37 °C and 5 % CO2. The next day, each Example compound (such as Example 8) dissolved and diluted in DMSO across 10 concentration ranges and a DMSO control group were treated on the cells for 72 hours. After completion of the compound treatment, 10 µL of Cell Counting Kit-8 (Dojindo) reagent was added to each well of the 96-well plate, followed by incubation for 2 hours. After inserting the 96-well plate into an Envision plate reader […], luminescence signals were measured. Relative IC50 values were calculated by fitting a dose-response curve using Graphpad PRISM software.
(§2) The lung cancer cell proliferation inhibitory activities of the Example compounds measured by the method described above were evaluated according to the following criteria, and the results are presented in Table 17.

For assay [3], the system named is NCI-H358 cells. In words: Lung cancer cell proliferation inhibitory activity, NCI-H358. The settings on record: Homo sapiens, 72 hours, Cell Counting Kit-8, relative IC50. In kind it is cell-based. As for the experimental part: as §1, §2
In general terms: Tetrazolium dyes change colour on reduction, which living cells bring about.

In assay [4] the test system is AsPC-1. Nature of the assay: Pancreatic cancer cell proliferation inhibitory activity, AsPC-1. To be noted: Homo sapiens, ASPC1; 72 hours, Cell Counting Kit-8, relative IC50. In kind it is cell-based. On the procedure:
Experiments were performed using three types of pancreatic cancer cell lines to measure the cell proliferation inhibitory ability of the compounds of the present invention. AsPC-1, MIA-PaCa2-Control, and Gemcitabine resistant-MIA-PaCa2 cells were dispensed into a 96-well plate at 100 uL of cell suspension per well using DMEM medium containing 10 % FBS and 1 % PS, followed by incubation in a cell incubator at 37 °C and 5 % CO2. The next day, the compound of Example 8 dissolved and diluted in DMSO across 10 concentration ranges and a DMSO control group were treated on the cells for 72 hours. After completion of the compound treatment, 10 µL of Cell Counting Kit-8 (Dojindo) reagent was added to each well of the 96-well plate, followed by incubation for 2 hours. […] were measured after inserting the 96-well plate into an Envision plate reader […]. Relative IC50 values were calculated by fitting a dose-response curve using Graphpad PRISM software.
The pancreatic cancer cell proliferation inhibitory activities of the Example compounds measured by the method described above were evaluated according to the following criteria, and the results are presented in Table 18.

Assay [5] deals with DLD-1. Nature of the assay: Colorectal cancer cell proliferation inhibitory activity, DLD-1. Type of assay: cell-based. To be noted: Homo sapiens, 72 hours, Cell Counting Kit-8, relative IC50. As for the experimental part:
(§3) Experiments were performed using seven types of colorectal cancer cell lines to measure the cell proliferation inhibitory ability of each Example compound. DLD-1, LoVo, SW620, SW480, HCT116, HCT15, and HT29 cells were dispensed into a 96-well plate at 100 µL of cell suspension per well using RPMI1640 medium containing 10 % FBS and 1 % PS, followed by incubation in a cell incubator at 37 °C and 5 % CO2. The next day, each Example compound dissolved and diluted in DMSO across 10 concentration ranges and a DMSO control group were treated on the cells for 72 hours. After completion of the compound treatment, 10 µL of Cell Counting Kit-8 (Dojindo) reagent was added to each well of the 96-well plate, followed by incubation for 2 hours. […] were measured after inserting the 96-well plate into an Envision plate reader […]. Relative IC50 values were calculated by fitting a dose-response curve using Graphpad PRISM software.
(§4) The colorectal cancer cell proliferation inhibitory activities of the Example compounds measured by the method described above were evaluated according to the following criteria, and the results are presented in Table 19.

The test system of assay [6] is SW620. In words: Colorectal cancer cell proliferation inhibitory activity, SW620. In kind it is cell-based. To be noted: Homo sapiens, SW-620; 72 hours, Cell Counting Kit-8, relative IC50. On the procedure:
as §3, §4

Assay [7] deals with HCT116. Nature of the assay: Colorectal cancer cell proliferation inhibitory activity, HCT116. The settings on record: Homo sapiens, HCT-116; 72 hours, Cell Counting Kit-8, relative IC50. In kind it is cell-based. On the procedure:
as §3, §4

By IC50 is commonly meant the concentration that gives 50% inhibition. A lower IC50 goes with greater potency in that assay.

Consider `N#CC1CN(c2cc(NCc3nc4cc(Cl)c(Cl)cc4[nH]3)c3ncc(C(F)(F)F)n3n2)C1` [Example 30, 1-(8-(((5,6-dichloro-1H-benzol[d]imidazol-2-yl)methyl)amino)-3-(trifluoromethyl)imidazo[1,2-b]pyridazin-6-yl)azetidine-3-carbonitrile], for which, in assay [1], the “reduction in tumor size” value is listed as “dose-dependent reduction in tumor size”.

For the compound `CN1CCN(c2cc(NCc3nc4ccc(F)c(F)c4[nH]3)c3ncc(C(F)(F)F)n3n2)CC1` [Example 8, N-((6,7-difluoro-1H-benzo[d]imidazol-2-yl)methyl)-6-(4-methylpiperazin-1-yl)-3-(trifluoromethyl)imidazo[1,2-b]pyridazin-8-amine], the IC50 in assay [2], in assay [3], in assay [4], in assay [5], in assay [6] and in assay [7] was no more than 200 nM in each case.

(Values after patent EP4813991A1 (iLeadBMS Co., Ltd., priority 2023, dated 2025).)
